Here are results for four molecules from patent US6855513B1 (priority 1999, dated 2005).

Data set [1] has as its system quorum sensing signaling (Las system), QSC102 lacZ. Nature of the data set: Two-strain (PAO1 / QSC102) screening assay for quorum sensing inhibiting compounds. In kind it is cell-based, Pseudomonas aeruginosa. As to conditions: PAO1 + QSC102 on LB agar with X-gal, visual. The method, then: In this example, the screening assay used two strains of P. aeruginosa: a wild type P. aeruginosa (PAO1) and QSC102, from Example 1 (see FIG. 8). This assay will detect inhibition of all aspects of quorum sensing signaling, e.g., signal generation and signal reception.
(§1) Microtiter plates are prepared by adding 200 μL Luria Broth (“LB”) agar, containing 0.008% 5-bromo-4-chloro-3-indolyl-β-D-galactose (X-gal) to each well. Overnight cultures of PAO1 and QSC102 are subcultured in LB to a starting absorbance at 600 nm (“A600”) of 0.05 and grown at 37° C to an A600 of 1.0. PAO1 is diluted 2.5×10^5-fold in LB and 5 μL of this is applied to the surface of the LB agar in each well. Plates are then dried in a laminar flow hood for 60 minutes. A tenfold dilution of QSC102 in LB is used to inoculate each well using a replicator. Plates are then sealed and incubated at 37° C for 40 hours. Growth and color development are evaluated visually and the data is recorded with a camera.
(§2) The test compound was present in a microtiter well and overlaid with LB agar and 5-bromo-4-chloro-3-indolyl-β-D-galactose (X-gal). Both strains were spotted on the agar in each well. […] Inhibition of signaling was evaluated qualitatively by the absence or weakening of the blue color development.

The test system of data set [2] is P. aeruginosa PAO1 and QSC102. Briefly: Bacterial growth in the PAO1 / QSC102 screening assay. In kind it is cell-based, Pseudomonas aeruginosa. The conditions noted are these: in the presence of test compound. The method, then: as §1, §2
The next data set deals with T1, RhlI (Pseudomonas aeruginosa, UniProt P54291).
T1 construct: host or cells: LasI minus strain of P. aeruginosa (as described for the cited study, Parsek et al. 1999)
T1 sequence (P54291 whole entry): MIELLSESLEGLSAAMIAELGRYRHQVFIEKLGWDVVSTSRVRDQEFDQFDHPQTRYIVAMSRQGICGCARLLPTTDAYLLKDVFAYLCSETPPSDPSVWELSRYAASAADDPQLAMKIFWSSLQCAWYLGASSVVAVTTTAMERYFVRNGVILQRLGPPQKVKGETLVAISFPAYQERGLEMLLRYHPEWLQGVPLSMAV
As to conditions: substrate of RhlI; cited from earlier work.

`CC(=O)C1CCOC1=O` (stereo not drawn) [acetyl-butyrolactone]: in data set [1], the “Concentration required to suppress color development completely” value was approximately 20 mM and the “Inhibition of signaling (blue color development)” value was “showed an inhibitory effect”. In addition, the Bacterial growth entry in data set [2] is on record as “not inhibited”.

Consider butanoyl-acyl carrier protein [C4-ACP], for which, in the data set with RhlI, the Michaelis constant (Km) is 6 µM.

On to `CCCC(=O)SCCNC(=O)CCNC(=O)[C@H](O)C(C)(C)COP(=O)(O)OP(=O)(O)OC[C@H]1O[C@@H](n2cnc3c(N)ncnc32)[C@H](O)[C@@H]1OP(=O)(O)O` [butanoyl-CoA], for which, at RhlI, the Km was 230 µM and the “vmax compared to C4-ACP” value is reported as “one order of magnitude slower”.

Turning to `O=C1CCCO1` [butyrolactone], in data set [1], the “Concentration required to suppress color development completely” value is listed as approximately 20 mM and the “Inhibition of signaling (blue color development)” value is given as “showed an inhibitory effect”. The Bacterial growth entry in data set [2] is listed as “not inhibited”.

As usually defined, the Km is the substrate concentration at which the rate is half of its maximum.
